Measurements reported in paper PMC7037682, “Herb–Drug Interaction of Red Ginseng Extract and Ginsenoside Rc with Valsartan in Rats” (Molecules, 2020).

Tests used:
in vivo [1] = conditions: rat, iv, 1 mg/kg
Procedure: (§1) The rats were randomly divided into the control and rifampin groups. […] Quantification was performed in the selected reaction-monitoring mode at m/z 436.1 → 291.0 for valsartan and m/z 336.1 → 320.0 for berberine. […] The intraday and interday precision ranged from 1.80% to 9.23%.

in vivo [2] = conditions: rat, iv, 1 mg/kg; remark: listed apart in the source
Procedure: Quantification was performed in the selected reaction-monitoring mode at m/z 436.1 → 291.0 for valsartan and m/z 336.1 → 320.0 for berberine. […] The intraday and interday precision ranged from 1.80% to 9.23%.

[3] = Pharmacokinetics of iv valsartan in rats with or without repeated iv Rc; format: in vivo; conditions: rat, plasma, 1 mg/kg, valsartan 1 mg/kg iv; for AUC(0-t): read-out: AUC24h
Procedure: as §1, with “Rc” for “rifampin”, “groups. The Rc group was injected with Rc solution (3 mg/mL/kg, dissolved in saline) intravenously via the tail vein for 5 consecutive days. The control group received saline (1 mL/kg) for 5 consecutive days via the tail vein.” for “groups.”

Oatps = conditions: rats ref 29, 30; cited from earlier work
OATP1B1 and OATP1B3 = conditions: human ref 29, 30; cited from earlier work
OATP1B1 = target: T1, OATP1B1 (Homo sapiens, UniProt Q9Y6L6); assay: Valsartan uptake by HEK293-OATP1B1 cells versus mock cells; format: cell-based; set-up: host or cells: HEK293; conditions: 5 μM valsartan
T1 sequence (Q9Y6L6 1-691): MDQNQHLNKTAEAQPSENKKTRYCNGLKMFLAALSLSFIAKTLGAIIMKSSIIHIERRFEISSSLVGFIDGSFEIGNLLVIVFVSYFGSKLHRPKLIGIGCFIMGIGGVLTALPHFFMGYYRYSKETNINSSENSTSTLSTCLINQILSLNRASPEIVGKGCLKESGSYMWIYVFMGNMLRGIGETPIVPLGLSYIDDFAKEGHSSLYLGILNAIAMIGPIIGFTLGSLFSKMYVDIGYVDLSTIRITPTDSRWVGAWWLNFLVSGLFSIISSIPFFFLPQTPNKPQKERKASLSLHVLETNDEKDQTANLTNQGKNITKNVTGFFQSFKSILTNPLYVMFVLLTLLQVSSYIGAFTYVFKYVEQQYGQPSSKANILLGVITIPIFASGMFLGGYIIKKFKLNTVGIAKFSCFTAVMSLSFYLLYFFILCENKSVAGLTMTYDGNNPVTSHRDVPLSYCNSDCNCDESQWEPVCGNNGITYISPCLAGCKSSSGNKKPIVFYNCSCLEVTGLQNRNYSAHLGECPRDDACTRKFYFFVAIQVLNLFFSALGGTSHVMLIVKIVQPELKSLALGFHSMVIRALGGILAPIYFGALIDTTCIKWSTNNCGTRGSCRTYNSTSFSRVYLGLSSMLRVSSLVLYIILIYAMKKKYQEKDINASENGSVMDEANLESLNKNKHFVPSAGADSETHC
Procedure: (§2) The uptake of valsartan 5 (μM)was measured for 5 min immediately after adding aliquots (100 μL) of HBSS containing 5 μM valsartan in the presence or absence of rifampin (1–100 μM) or tri-glycosylated PPD-type ginsenosides (Rb1, Rb2, and Rc; 0.1–100 μM) to the HEK293-mock cells and HEK293-OATP1B1 and –OAPT1B3 cells after aspirating pre-incubated HBSS. […] After the centrifugation of cell lysate samples (16,000× g, 5 min, 4 °C), aliquots (4 μL) of cell lysate samples were injected into LC-MS/MS system for the analysis of valsartan. Transporter mediated uptake of probe substrates or valsartan was calculated by subtracting the uptake rate of probe substrates or valsartan into HEK293-mock cells from that into HEK293 cells expressing respective transporters.

OATP1B3 = target: T2, OATP1B3 (Homo sapiens, UniProt Q9NPD5); assay: Valsartan uptake by HEK293-OATP1B3 cells versus mock cells; format: cell-based; set-up: host or cells: HEK293; conditions: 5 μM valsartan
T2 sequence (Q9NPD5 1-702): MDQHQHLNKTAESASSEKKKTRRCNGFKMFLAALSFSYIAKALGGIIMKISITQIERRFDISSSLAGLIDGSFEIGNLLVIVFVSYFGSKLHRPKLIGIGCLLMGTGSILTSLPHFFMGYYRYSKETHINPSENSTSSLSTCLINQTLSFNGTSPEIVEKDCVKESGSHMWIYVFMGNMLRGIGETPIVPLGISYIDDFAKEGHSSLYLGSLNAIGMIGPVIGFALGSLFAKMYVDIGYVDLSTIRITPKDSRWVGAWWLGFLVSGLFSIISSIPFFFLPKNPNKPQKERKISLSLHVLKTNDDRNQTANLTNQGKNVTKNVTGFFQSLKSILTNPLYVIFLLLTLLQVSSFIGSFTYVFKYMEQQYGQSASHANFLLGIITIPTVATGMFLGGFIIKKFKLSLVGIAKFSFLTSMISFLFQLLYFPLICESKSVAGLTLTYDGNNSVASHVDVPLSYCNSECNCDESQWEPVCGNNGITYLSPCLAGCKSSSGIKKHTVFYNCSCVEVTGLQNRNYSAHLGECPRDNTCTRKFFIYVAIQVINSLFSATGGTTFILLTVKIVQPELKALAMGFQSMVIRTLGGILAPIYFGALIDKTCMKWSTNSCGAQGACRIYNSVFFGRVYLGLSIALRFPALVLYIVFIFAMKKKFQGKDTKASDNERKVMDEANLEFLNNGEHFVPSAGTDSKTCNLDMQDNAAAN
Procedure: as §2

UGT1A9 = conditions: cited from earlier work
[4] = Plasma pharmacokinetics of ginsenosides in rats after 1-week repeated RGE; conditions: LC-MS/MS, after RGE 1.5 g/kg/day po for 1 week
Procedure: The rats were randomly divided into the control and RGE groups. The RGE group received a RGE suspension (1.5 g/mL/kg/day, in distilled water) for 7 days via oral gavage. The control group received distilled water for 7 days via oral gavage. After 1 h following the last RGE treatment, valsartan was injected intravenously to both groups via the tail vein at 1 mg/mL/kg (dissolved in DMSO: saline = 2:8, v/v). […] After centrifugation of the blood samples at 16,000× g for 10 min, aliquots (50 μL each) of plasma samples were stored at −80 °C until the analysis of ginsenosides and valsartan.
The residue was reconstituted with 100 μL of 70% methanol consisting of 0.1% formic acid. An aliquot (20 μL) from the sample was injected into the LC-MS/MS system.
After freezing the aqueous layer at −80 °C for 2 h, the upper organic layer was transferred to a clean tube and evaporated to dryness. […] An aliquot (20 μL) from the sample was injected into the LC-MS/MS system. The samples were eluted through an Omega Polar C18 column (2.1 mm × 100 mm, 3 µm particle size) (Phenomenex, Torrance, CA, USA) using a mobile phase consisting of 0.1% formic acid in water: 0.1% formic acid in methanol (15:85, v/v) at a flow rate of 0.2 mL/min.
Pharmacokinetic parameters were calculated from plasma concentration-time profile using non-compartment analysis of WinNonlin (version 5.1; Pharsights, Cary, NC, USA). The statistical significance was assessed by t-test using Statistical Package for the Social Sciences (version 24.0; SPSS Inc., Chicago, IL, USA).

[5] = after Rc 3 mg/kg/day iv for 5 days

SMILES: CCCCC(=O)N(Cc1ccc(-c2ccccc2-c2nnn[nH]2)cc1)[C@H](C(=O)O)C(C)C [Valsartan, valsartan]
- C0 (in vivo [1]): 1.63308 ± 1.30867 µg/mL
- MRT (in vivo [1]): 3.37 ± 0.83 h
- T1/2 (in vivo [1]): 2.79 ± 0.32 h
- Vd (in vivo [1]): 0.05503 ± 0.02629 L/kg
- C0 (in vivo [1]; C0): 1.17 ± 0.119 µg/mL
- clearance (in vivo [1]; CL): 1.56 ± 0.378 L/h/kg
- MRT (in vivo [1]; MRT): 2.99 ± 0.47 h
- half-life (in vivo [1]; T1/2): 4.48 ± 1.24 h
- Vd (in vivo [1]; Vd): 4.7 ± 1.54 L/kg
- AUC24h (in vivo [2]): 0.77659 ± 0.22882 µg·h/mL
- C0 (in vivo [2]): 0.78147 ± 0.21104 µg/mL
- MRT (in vivo [2]): 3.81 ± 0.05 h
- T1/2 (in vivo [2]): 4.59 ± 0.73 h
- Vd (in vivo [2]): 0.08538 ± 0.02582 L/kg
- AUC(0-t) (in vivo [2]; AUC24h): 0.859 ± 0.234 µg·h/mL
- AUC(0-inf) (in vivo [2]; AUC∞): 0.882 ± 0.247 µg·h/mL
- C0 (in vivo [2]; C0): 0.648 ± 0.0505 µg/mL
- clearance (in vivo [2]; CL): 1.2 ± 0.329 L/h/kg
- MRT (in vivo [2]; MRT): 3.76 ± 1.16 h
- half-life (in vivo [2]; T1/2): 4.55 ± 0.98 h
- Vd (in vivo [2]; Vd): 4.33 ± 0.922 L/kg
- AUC(0-inf) [3, 5]: 0.836 ± 0.112 µg·h/mL
- C0 [3, 5]: 1.45 ± 0.998 µg/mL
- MRT [3, 5]: 2.94 ± 1.52 h
- Vd [3, 5]: 3.46 ± 1.64 L/kg
- clearance [3, 5]: 1.21 ± 0.172 L/h/kg
- half-life [3, 5]: 3.3 ± 1.51 h
- AUC(0-t) [3, 5]: 0.809 ± 0.112 µg·h/mL
- AUC(0-inf) ([3]; control group of Rc study): 0.657 ± 0.0849 µg·h/mL
- C0 ([3]; control group of Rc study): 0.401 ± 0.0779 µg/mL
- MRT ([3]; control group of Rc study): 2.27 ± 0.67 h
- Vd ([3]; control group of Rc study): 3.43 ± 0.794 L/kg
- clearance ([3]; control group of Rc study): 1.54 ± 0.21 L/h/kg
- half-life ([3]; control group of Rc study): 2.41 ± 1.3 h
- AUC(0-t) ([3]; control group of Rc study): 0.639 ± 0.0807 µg·h/mL
- contribution of Oatp transporters in the hepato-biliary excretion (Oatps): 70–85%
- contribution of Oatp transporters in the hepato-biliary excretion (OATP1B1 and OATP1B3): 70–85%
- Valsartan uptake increase, HEK293-OATP1B1 vs HEK293-mock (OATP1B1): 19.8 fold
- Valsartan uptake increase, HEK293-OATP1B3 vs HEK293-mock (OATP1B3): 26.1 fold

SMILES: CC(C)=CCC[C@](C)(O)[C@H]1CC[C@]2(C)[C@@H]1[C@H](O)C[C@@H]1[C@@]3(C)CC[C@H](O)C(C)(C)[C@@H]3[C@@H](O[C@@H]3O[C@H](CO)[C@@H](O)[C@H](O)[C@H]3O[C@@H]3O[C@H](CO)[C@@H](O)[C@H](O)[C@H]3O)C[C@]12C [Rf]
- IC50 UGT1A9 (UGT1A9): did not inhibit

SMILES: CC(C)=CCC[C@](C)(O[C@@H]1O[C@H](CO)[C@@H](O)[C@H](O)[C@H]1O)[C@H]1CC[C@]2(C)[C@@H]1[C@H](O)C[C@@H]1[C@@]3(C)CC[C@H](O[C@@H]4O[C@H](CO)[C@@H](O)[C@H](O)[C@H]4O)C(C)(C)[C@@H]3CC[C@]12C [F2]
- detection in rat plasma [4]: not detected

SMILES: CC(C)=CCC[C@](C)(O[C@@H]1O[C@H](CO)[C@@H](O)[C@H](O)[C@H]1O)[C@H]1CC[C@]2(C)[C@@H]1[C@H](O)C[C@@H]1[C@@]3(C)CC[C@H](O)C(C)(C)[C@@H]3[C@@H](O)C[C@]12C [F1]
- detection in rat plasma [4]: not detected
- IC50 UGT1A9 (UGT1A9): did not inhibit
